The record followed here is ChEMBL document CHEMBL1127145, “Syntheses of novel 1-aminocyclopropane-1-carboxylic acid (ACC)-containing -lactams” (Bioorg Med Chem Lett, 1993).

This assay deals with Beta-lactamase TEM (Escherichia coli) (UniProt P62593). Put plainly: Inhibitory activity towards beta-lactamase enzyme at 50 mM concentration or higher; Weak inhibitor.

Activity calls are given as the source filed them. The calls are words filed in the database; no cut-off is given here.

Chain of Beta-lactamase TEM (Escherichia coli) (P62593 whole entry): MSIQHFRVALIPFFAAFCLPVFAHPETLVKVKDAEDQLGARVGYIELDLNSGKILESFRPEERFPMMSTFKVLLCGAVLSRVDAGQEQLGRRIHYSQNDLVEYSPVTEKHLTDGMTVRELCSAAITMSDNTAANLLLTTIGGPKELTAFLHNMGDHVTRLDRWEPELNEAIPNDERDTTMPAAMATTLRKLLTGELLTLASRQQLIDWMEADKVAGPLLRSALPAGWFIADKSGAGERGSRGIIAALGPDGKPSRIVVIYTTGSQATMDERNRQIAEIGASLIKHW

On to `CC(=O)[C@@H]1[C@H](NC(=O)c2ccccc2)C(=O)N1C1(C(=O)O)CC1`, for which the outcome was inactive.
